Where two headings read alike, the source gives them in different places.
Tests used:
[1] = system: deoxycorticosterone acetate (DOCA)/salt-induced model of FSGS; assay: DOCA salt study: serum and urine analyses; type: in vivo, mice (129/sv strain); settings: DOCA/salt mice; for reduction in albuminuria: 2.5 mg/kg p.o. QD
Method: Induction of model: Male mice (129/sv strain) were purchased from Taconic Labs. The animals were uninephrectomized (Unx) at 6 weeks of age by the vendor and shipped one week after surgery. At 2 weeks post Unx, a DOCA or placebo pellet (21-day release pellets, 50 mg/pellet, Innovative Research of America, Sarasota, Fla.) was implanted s.c. All mice were then placed on a semisynthetic diet which contained a moderate fat content and a low phytoestrogen/anti-oxidant level, which approximates a normal human diet (4). A second DOCA or placebo pellet was implanted three weeks later. […] One percent NaCl in tap water was given to each group except the sham control group. Body weight was measured weekly, and doses were readjusted based on the current body weight. Urine and blood samples were collected prior to treatment and at week 2 and 4 of treatment. Mice were terminated at week 4. Data is presented as the mean+SEM for the number of animals listed in each group. Serum and urine analyses: Blood samples were collected from the retro-orbital sinus and samples were separated to serum. Serum and urine creatinine (enzymatic assay), blood urea nitrogen (BUN), and serum cholesterol were measured using a Cobas 400 plus bioanalyzer (Roche Diagnostics, IN). Urine samples were collected for 24 h using metabolic cages. Urine albumin was measured by immunoassay Albuwell M (Exocell Inc., Philadelphia, Pa.). Immuno-ELISA according to manufacturer's instructions was used to measure urine nephrin (Exocell Inc., Philadelphia, Pa.) and MCP-1 (Thermal Scientific, Waltham, Mass.). Kim-1 was measured using the E-90KIM Mouse ELISA Kit (Immunology Consultants Laboratory, Portland, Oreg.). Statistical analyses for serum and urine data was performed using a two-tailed Student's t-test.

[2] = Multiple ascending dose study in obese males: pharmacokinetics; type: in vivo, human; settings: for plasma concentration Day 21 / plasma concentration Day 28: after 14 days dosing; for Tmax: male, human, plasma, oral, 450 mg, read-out: Median Tmax
Description: The primary endpoints of this study included safety and tolerability, pharmacokinetics, and biomarkers. The safety and tolerability included physical examinations, adverse event (AE) reporting, vital signs (blood pressure, heart rate, respiratory rate), clinical laboratory values (hematology, biochemistry, and urinalysis) including serum magnesium and creatine phosphokinase (CPK), 12-lead electrocardiograms (ECGs) for safety assessments and QTcF measured on ECGs extracted from cardiac Holter monitoring. The pharmacokinetic measurements included maximum observed plasma drug concentration (Cmax), time to maximum plasma drug concentration (Tmax), terminal phase half-life (t½), area under the plasma drug concentration versus time curve (AUC0-last, AUC0-∞), clearance (CL/F), volume of distribution (Vd/F) and terminal elimination rate constant (λz).
(§1) This was a single-center, randomized, double-blind, placebo-controlled study of sequential multiple ascending doses of oral CXA-10 in obese male subjects. Eligible subjects included obese males age 19 to 57 years and BMI 27.0 to 39.5 kg/m^2. CXA-10 and placebo were provided as solutions in hard shell capsules. Three (3) cohorts of subjects were dosed once daily with CXA-10 for 14 days. The doses administered in this study were 25, 150 and 450 mg. Subjects enrolled in the highest dose level (450 mg) were administered 600 mg on day 1 then 450 mg for 13 days. This cohort (cohort 3) was given the option to receive an additional 450 mg dose on day 15 with a high fat (50%) breakfast.
Subjects remained at the unit until discharge on Day 15 after assessments were completed and reviewed. […] They remained in the unit until Day 16 (24 h after last dose on Day 15) before being discharged from the unit. The additional procedures on Day 15 and Day 16 were optional for subjects in cohort 3.
(§2) Full PK profiles were obtained on Days 1 and 14. For subjects in cohort 3 who participate in the additional procedures on Day 15, full PK profiles were obtained on Days 1, 14, and 15. An abbreviated PK profile could also be obtained for the highest dose cohort only on one additional day. The actual day of PK sampling coincided with the additional day of Holter monitoring for the highest dose cohort. Subjects returned on Day 21 and Day 28 for PK, safety, and biomarker assessments.

[3] = system: adriamycin-induced nephropathy model; settings: continually infused at disease onset; cited from earlier work
obese male subjects = assay: Multiple ascending dose study in obese males: serum biomarkers (leptin, MCP-1, IL-6, triglycerides, cholesterol); type: in vivo, human
Description: Biomarker characterization included the following laboratory parameters: serum leptin, FBG, total cholesterol, HDL and LDL, triglycerides, HR, PR, QRS interval and T-wave morphology measured on ECGs extracted from cardiac Holter monitoring, measurements of serum RBP4, CRP, PAI-1, measurements of serum cytokines: IL-6, TNFα, MCP-1, measurements of the following biomarkers in whole blood by quantitative reverse transcriptase polymerase chain reaction (qRT-PCR) including: HO-1, NQ01, GCLM, HSP70 (HSP1A HSP1B, HSPA6), HSP22 (HSPB8) and HPS40 (DNAJA4), urine RBP4, MCP-1 and KIM-1, urinary exosomes by qRT-PCR including: HO-1, NQ01, GCLM, HSP70 (HSP1A HSP1B, HSPA6), HSP22 (HSPB8) and HPS40 (DNAJA4), gene and protein expression analyses by DNAseq, RNAseq, and western blots in PBMCs and ratio of EETs to DHETs in serum and urine.
as §1, §2

[4] = low dose 2.5 mg/kg p.o. QD, 4 weeks
[5] = lower dose 2.5 mg/kg p.o. QD, 4 weeks
[6] = cohort 3, day 15 with high fat (50%) breakfast versus fasted

plasma concentration Day 21 ([2]; 25 mg cohort): 0.17 ng/mL | plasma concentration Day 28 ([2]; 25 mg cohort): 0 ng/mL | plasma concentration Day 21 ([2]; 150 mg cohort): 0.33 ng/mL | plasma concentration Day 28 ([2]; 150 mg cohort): (0.39 ng/mL | plasma concentration Day 21 ([2]; 450 mg cohort): 0.38 ng/mL | plasma concentration Day 28 ([2]; 450 mg cohort): 0.30 ng/mL | increase of AUC under fed conditions [2, 6]: about 1.7 fold | increase of Cmax under fed conditions [2, 6]: about 2 fold | Tmax ([2]; fasted conditions): 3 h | Tmax ([2]; fed conditions (high fat breakfast)): 6 h
Compound: CCCCCCCC/C(=C\CCCCCCCC(=O)O)[N+](=O)[O-] [CXA-10, 10-nitro-9(E)-octadec-9-enoic acid]
reduction in albuminuria ([1]; week 2 post-dosing): 49% | reduction in albuminuria ([1]; week 4 post-dosing): 34% | albuminuria ([1]; high dose 12.5 mg/kg p.o. QD): had an effect initially but it was not sustained | urinary MCP-1 excretion ([1]; high dose 12.5 mg/kg p.o. QD, 4 weeks): had no effect | plasma cholesterol [1, 4]: reduced | urinary MCP-1 excretion [1, 4]: significantly reduced | albumin excretion [1, 5]: markedly reduced | urinary nephrin levels [1, 5]: markedly reduced | pharmacokinetics profiles (dose proportionality, accumulation) ([2]; 25, 150, 450 mg once daily, day 1 and day 14): dose proportional concentration-times with minimal accumulation | podocyte number [3]: increase in podocyte number | Cholesterol concentrations, change from baseline (obese male subjects; 150 mg): trend to decrease from baseline | MCP-1 mean change from baseline compared to placebo (obese male subjects; 150 mg): significantly different compared to placebo | Triglycerides LS Mean Difference (CI) (obese male subjects; 150 mg versus placebo, Day 8): -45.4 mg/dL | MCP-1 LS Mean Difference (CI) (obese male subjects; 150 mg versus placebo, Day 14 (0-10 hr)): −228.5 (−387.2, −69.77) pg/mL | Triglycerides LS Mean Difference (CI) (obese male subjects; 150 mg versus placebo, Day 15): -59.6 mg/dL | decrease of leptin concentrations from baseline (obese male subjects; 150 mg, day 14, placebo increased 35%): 21.5% | IL-6 concentrations, change from baseline (obese male subjects; 150 mg, days 7 and 14): trend to decrease from baseline | Leptin % change from baseline (obese male subjects; Cohort 2 150 mg (n = 10), Day 14): −21.5% | Leptin LS Mean Difference (CI) versus placebo (obese male subjects; Cohort 2 150 mg versus placebo, Day 14): −56.5 (−140.5, 27.5) pg/mL

From patent US10537541B2, “Treatment of focal segmental glomerular sclerosis (FSGS) using therapeutically effective oral doses of 10-nitro-9(E)-octadec-9-enoic acid” (Complexa, Inc., priority 2015, dated 2020)
